In patent publication US20250241876A1, “ANTI-TUMOR COMPOUNDS AND METHODS OF USE THEREOF AND SYNTHESIS THEREOF” (Atossa Therapeutics, Inc., priority 2023, published 2025):

How the values were obtained:
Type in all cases: cell-based
T47D cells [1] = assay: Crystal violet cell viability assay, T47D
Experimental: This example covers the cell toxicities of endoxifen and various endoxifen-related compounds. The toxicities of these compounds were measured using crystal violet cell viabilities assays per the protocols outlined in Feoktistova et al., Cold Spring Harb Protoc., 2016; 4 (PMID: 27037069). This assay utilizes crystal violet, which is a triarylmethane dye that binds to ribose type molecules such as DNA in nuclei. The amount of crystal violet staining is proportional to the cell biomass that is attached to the plate and thus this cell biomass can be used to infer levels of cell viability and cytotoxicity in control/experimental conditions. […]
FIGS. 34-39 summarize crystal violet assays with endoxifen (top-left plot in each figure), Compound 7b (top-middle plot in each figure), Compound 7a (top-right plot in each figure), Compound 5b (bottom-left plot in each figure), Compound 5a (bottom-middle plot in each figure), and Compound 3 (bottom-right plot in each figure). Each individual plot provides normalized absorbance (corresponding to cell concentration) over 25 nM to 5 μM concentration ranges, with the rightmost entry in each plot corresponding to vehicle treatment. […]

T47D cancer cells = assay: Cell cycle progression assay; details: higher concentration (2.5, 5 μM)
Experimental: This example covers cell cycle progression assays with endoxifen and multiple endoxifen-related compounds on T47D cancer cells. FIGS. 63A-G are plots that show absolute cell counts for cells in different cell cycle phases (G1 through S; G1; and S, G2, and M) following treatment with vehicle (DMSO) or 1.25 μM endoxifen, Compound 7b, Compound 7a, Compound 5b, Compound 5a, and Compound 3, respectively. FIGS. 64A-G are plots that show percent cell counts for cells in different cell cycle phases following treatment with vehicle or 1.25 μM endoxifen, Compound 7b, Compound 7a, Compound 5b, Compound 5a, and Compound 3, respectively. FIGS. 65A-G are plots that show absolute cell counts for cells in different cell cycle phases following treatment with vehicle or 2.5 μM endoxifen, Compound 7b, Compound 7a, Compound 5b, Compound 5a, and Compound 3, respectively. FIGS. 66A-G are plots that show percent cell counts for cells in different cell cycle phases following treatment with vehicle or 2.5 μM endoxifen, Compound 7b, Compound 7a, Compound 5b, Compound 5a, and Compound 3, respectively. FIGS. 67A-G are plots that show absolute cell counts for cells in different cell cycle phases following treatment with vehicle or 5 μM endoxifen, Compound 7b, Compound 7a, Compound 5b, Compound 5a, and Compound 3, respectively. […]

[2] = test system: estrogen-induced and ERα-mediated activation of an estrogen response element (ERE) luciferase reporter construct in ER+ T47D cells; assay: Luciferase (ERE reporter) agonist/antagonist assay, ER+ cells
MCF7 cells [3] = assay: Caspase-3/7 apoptosis assay, MCF7; details: 1.25, 2.5, 5 μM
Excerpt: This example covers anti-invasion, apoptosis, and toxicity assays for various endoxifen-related compounds against multiple cancer cell lines. FIGS. 90A-F are plots that summarize results of proliferation assays for multiple cancer cell lines (MCF7, T47D, UCD4, and UCD12) in the presence of varying doses of endoxifen and multiple endoxifen-related compounds. FIGS. 91A-C are plots that summarize results of wound confluence measurements from scratch wound assays on T47D cells in the presence of 1.25 μM (FIG. 91A), 2.5 μM (FIG. 91B), and 5 μM (FIG. 91C) endoxifen and multiple endoxifen-related compounds. FIGS. 92A-C are plots that summarize results of wound density measurements from scratch wound assays on T47D cells in the presence of 1.25 μM (FIG. 92A), 2.5 μM (FIG. 92B), and 5 μM (FIG. 92C) endoxifen and multiple endoxifen-related compounds. FIGS. 93A-C are plots that summarize results of wound confluence measurements from scratch wound assays on MCF7 cells in the presence of 1.25 μM (FIG. 93A), 2.5 μM (FIG. 93B), and 5 μM (FIG. 93C) endoxifen and multiple endoxifen-related compounds. FIGS. 94A-C are plots that summarize results of wound density measurements from scratch wound assays on MCF7 cells in the presence of 1.25 μM (FIG. 94A), 2.5 μM (FIG. 94B), and 5 μM (FIG. 94C) endoxifen and multiple endoxifen-related compounds. […]

T47D cells [4] = assay: 2D culture proliferation, T47D
Excerpt: (§1) Approximately 80% of breast cancers express estrogen receptor alpha (ERα, ESR1) which drives cancer progression. […] (Z)-Endoxifen (ENDX), an active metabolite of tamoxifen, is a potent orally bioavailable selective estrogen receptor modulator with a favorable safety profile now under development for breast health applications. Its synthesis yields endoxifen-related byproduct new chemical entities (NCE), including Compound 7b, Compound 7a, Compound 5b and Compound 5a. This study compared the anti-estrogenic effects of these compounds to (Z)-endoxifen in ERα+ breast cancer cell lines (MCF7, T47D, UCD12), including those with ESR1 mutations (Y537S, D538G) linked to endocrine resistance.

UCD12 cells = assay: 2D culture proliferation, UCD12; details: for anti-proliferative activity compared with (Z)-endoxifen: estrogen-deficient conditions
Excerpt: as §1

[5] = test system: ERα+ breast cancer cell lines in 3D cultures; assay: 3D culture cancer cell proliferation; details: ~1 μM
Excerpt: as §1

[6] = test system: ERα+ breast cancer cell lines; assay: Cell cycle arrest, Example 29
Excerpt: as §1

MCF7 cells [7] = assay: Apoptosis induction, MCF7, Example 29; details: 1-5 μM; p<0.0001 vs. vehicle; p<0.0001 vs. (Z)-endoxifen
T47D cells [8] = assay: Apoptosis induction, T47D, Example 29; details: p<0.0001 vs. vehicle
[9] = test system: ERα+ breast cancer cell lines; assay: RT-qPCR analysis; details: 0.1 μM
[10] = 2D cultures, estrogen-containing media

Structure (SMILES) | activity against T47D cells compared with endoxifen (T47D cells [1]; micromolar concentrations (FIG. 41)) | activity against T47D cells compared with endoxifen (T47D cells [1]; sub-100 nanomolar concentrations (FIG. 41)) | cell cycle inhibition compared with endoxifen (T47D cancer cells) | agonist or antagonist behavior (luciferase assay) ([2]; T47D cell lines, FIGS. 72-74) | potency at inducing the apoptosis of MCF7 cells (MCF7 cells [3]) | anti-proliferative effect, ranking (T47D cells [4]; [10]) | anti-proliferative activity compared with (Z)-endoxifen (UCD12 cells) | potency in 3D cultures, ranking [5] | G1 cell cycle arrest [6] | apoptosis induction in MCF7 cells (MCF7 cells [7]) | anti-proliferative effects in ER+ cells compared with endoxifen ([2]; CSS+E2 media) | anti-proliferative activity compared with (Z)-endoxifen (T47D cells [4]; estrogen-deficient conditions) | anti-proliferative effect, ranking (UCD12 cells; [10]) | apoptosis induction in T47D cells (T47D cells [8]) | RT-qPCR analysis, potency ranking [9]
CC/C(=C(\c1ccc(O)cc1)c1ccc(OCC[N+](C)(C)C)cc1)c1ccccc1 [Compound 5a] | greater activity than endoxifen | lower activity against T47D cells than endoxifen | slightly lower cell cycle inhibition activity than endoxifen | strong antagonistic behavior | equal potencies | strongest effects | more effective | comparable, superior potency | most effective | surpassing (Z)-endoxifen |  |  |  |  | 
CC/C(=C(/c1ccc(O)cc1)c1ccc(OCC[N+](C)(C)C)cc1)c1ccccc1 [Compound 5b] |  |  | slightly lower cell cycle inhibition activity than endoxifen |  | equal potencies |  |  |  |  | surpassing (Z)-endoxifen |  |  |  |  | 
CC/C(=C(\c1ccc(O)cc1)c1ccc(OCCN(C)C(C)=O)cc1)c1ccccc1 [Compound 7a] |  |  |  |  |  |  | more effective |  |  | surpassing (Z)-endoxifen | closely resemble that of endoxifen | more effective | strongest effects | significantly induced | most potent
